From patent US11117939B2, “Polypeptides and antibodies to treat skin conditions associated with overproduction of sebum” (University of Sasketchewan, priority 2015, dated 2021) come the findings set out here.

The experiment concerns SZ95 sebocytes. Put plainly: Detection of lipids (nile red fluorescence) in SZ95 sebocytes. The following applies: for production of neutral (sebaceous) lipids: 24 vs 48 hours. The experiment is classed as cell-based, human. On the procedure:
C., Seltmann, H., Neitzel, H. & Orfanos, C. E. (1999) J. Invest. Dermatol. 113, 1011-1020], were maintained in Sebomed Basal Medium (Biochrom, Berlin) supplemented with 5 ng/ml human epidermal growth factor (Sigma), 10% heat inactivated FCS (Biochrom GmbH, Berlin, Germany), 50 ug/ml gentamicin (GIBCO/BRL), and 1 mM Ca2+, in a humidified atmosphere of 5% CO2 at 37° C. Shortly before the experiments were performed, BSA-medium [constituted of Sebomed Basal Medium supplemented with 1 mg/ml fatty acid-free BSA (Boehringer Mannheim), 1 mM Ca2+, and 10^-6 M linoleic acid (Sigma)] or Sebomed Complete Medium (Biochrom) was added to the cells. The SZ95 human sebocytes used for the experiments were between passages 31 and 35. The cells were subcultured at 60-70% confluence. The cultures were maintained at 37° C. in a humidified 5% CO2 incubator and the medium was replaced every 2-3 days.
The cells were cultured in 96-well tissue culture plates at a density of 2,000 cells per well for 2 days. The wells were then washed with PBS, and Sebomed Complete Medium was added. After 2 days, the medium was harvested, and fresh medium without or with INDIP peptide (SEQ ID NO: 2) at a concentration of 0, 0.1, 1, 10, or 20 μM in the presence and absence of Linoleic acid (5×10^−5 and 10^−4 M) and Testosterone (2×10^−8 M) was given to the cells. The supernatants were harvested 24 or 48 h later; the wells were washed twice with PBS, and 100 μl of a 10 μg/ml nile red solution in PBS was added to each well. 10 uM of scrambled INDIP peptide (i.e. a scrambled version of SEQ ID NO: 2) was used as the negative control peptide. The plates were then incubated at 37° C. for 30 min, and the released fluorescence was read on a Molecular Devices SPECTRAmax Gemini spectrofluorometer. The results are presented as percentages of the absolute fluorescence units in comparison with the controls, using 485 nm excitation and 565 nm emission filters for neutral lipids and 540 nm excitation and 620 nm emission filters for polar lipids. Experiments were performed in triplicate, with 10 wells evaluated for each data point in each experiment.

For “YGRKKRRQRRRGEPHKFKREW ((1)..(11) Tat; (12)..(21) Insig-1) [INDIP peptide (SEQ ID NO: 2), PTD-fused (TAT protein transduction domain) Insig-1 ubiquitination region peptide]”, the “production of neutral (sebaceous) lipids” value is on record as “significantly reduced” (10 μM peptide, occasionally, absence or presence of linoleic acid and testosterone); “significantly reduced” (20 μM peptide, greater effect as time progressed, absence or presence of linoleic acid and testosterone). The sebaceous differentiation entry (all conditions tested, with and without linoleic acid and testosterone) is “able to reduce”. Besides, the lipid production result (application to SZ95 sebocytes in vitro) is reported as “Significant Reduction”. Besides, the “polar lipids (membrane synthesis, synthetic activity of the cells)” value (concomitant with the neutral lipid reduction, absence or presence of linoleic acid and testosterone) is “concomitant reduction”.
